# Experimental data published in paper PMC4957937 (Bioorganic & medicinal chemistry, 2016).
# Starred links: 1 amine or outer side, 2 acyl side, 3 side chain; linkers in the order of their positions; H or OH if unused. Non-standard residues stand in square brackets, D forms with d. Residues, ends and D or L forms follow the SMILES beside them. Ahppa(3S,4S) = O=C(C[C@H](O)[C@H](Cc1ccccc1)N[*:1])[*:2]; dNMeF = CN[C@H](Cc1ccccc1)C(=O)O; NMeQ = CN[C@@H](CCC(N)=O)C(=O)O; Lac = C[C@H](O)C(=O)O
# Molecular target: BACE1 (Homo sapiens, UniProt P56817)
# Sequence (P56817 46-501): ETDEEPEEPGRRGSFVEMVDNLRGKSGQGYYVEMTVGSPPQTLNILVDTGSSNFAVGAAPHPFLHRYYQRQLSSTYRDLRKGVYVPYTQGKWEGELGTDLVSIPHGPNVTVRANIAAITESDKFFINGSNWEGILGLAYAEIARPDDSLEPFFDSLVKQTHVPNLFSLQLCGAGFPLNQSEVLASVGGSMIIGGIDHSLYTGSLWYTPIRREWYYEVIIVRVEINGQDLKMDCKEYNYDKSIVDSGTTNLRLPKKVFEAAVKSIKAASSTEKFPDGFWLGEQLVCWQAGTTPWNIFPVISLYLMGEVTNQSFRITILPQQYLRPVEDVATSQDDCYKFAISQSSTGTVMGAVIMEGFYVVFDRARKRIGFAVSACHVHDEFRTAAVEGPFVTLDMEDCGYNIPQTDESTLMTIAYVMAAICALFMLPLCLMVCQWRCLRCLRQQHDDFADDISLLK
# Test: Antiproteolytic activity assay against BACE1
# Type: biochemical
# Settings: fold less potent against BACE1 than against cathepsins D and E
smiles,measurement,value
"CC[C@H](C)[C@H](NC(=O)C[C@H](O)[C@H](Cc1ccccc1)NC(=O)[C@H](CCC(N)=O)N(C)C(=O)[C@@H](NC(=O)[C@H](C)O)[C@@H](C)CC)C(=O)NCC(=O)N(C)[C@H](Cc1ccccc1)C(=O)N1CCC[C@H]1C(=O)OC [Tasiamide F (1), Tasiamide F] (H-[Lac]I[NMeQ][Ahppa(3S,4S)]IG[dNMeF]P-OMe)",Selectivity ratio IC50 BACE1/CatD–E,12–30
